Measurements: patent US20080161399A1 (Ajinomoto Co., Inc., priority 2005, published 2008)

Target: T1, plasma albumin (Rattus norvegicus, UniProt P02770)
T1 construct: from tissue; host or cells: plasma of SD rats (carbon tetrachloride cirrhosis model and healthy controls)
Experiment: L-tryptophan binding rate to plasma albumin (ultrafiltration, LC/MS)
Type: in vitro ADME
Conditions: 37° C., n=2
Method: As a cirrhosis model rat, 25-week-old male SD rats (n=2) were prepared by administering carbon tetrachloride twice a week for 18 consecutive weeks and used, and 10-week-old healthy SD rats (n=2) were used as a control.
The plasma was preincubated at 37° C. for 20 min, 10 μL of L-tryptophan solution (10 mM) was added per 1 mL of plasma and they were mixed well (A). Solution A (450 μL) was dispensed to an ultrafiltration tube (Millipore, molecular weight 30,000 cut) and centrifuged at 3,000 g for 5 min at 37° C. to give 50 μL of filtrate (B) and 50 μL of unfiltrated solution (C). An equivalent amount of 8% (w/v) TCA solution was added to each of A and B, mixed and the mixture was centrifuged at room temperature and 3,000 g for 5 min. A protein-free supernatant was recovered. Thereto was added a 4-fold amount of 0.125% (v/v) heptafluorobutyric acid (HFBA) solution, mixed, diluted with 0.1% HFBA so that the concentration would fall within the range defined by the standard curve. Then, the concentration of L-tryptophan in each sample was quantified by the LC/MS method. The L-tryptophan binding rate to plasma albumin was shown by [1-(Trp concentration (B)/Trp concentration (A))]×100(%). The recovery rate was calculated by [Trp concentration (B)×50 μL+Trp concentration (C)×400 μL]/[Trp concentration (A)×450 μL]×100(%).

T1 sequence (P02770 25-608): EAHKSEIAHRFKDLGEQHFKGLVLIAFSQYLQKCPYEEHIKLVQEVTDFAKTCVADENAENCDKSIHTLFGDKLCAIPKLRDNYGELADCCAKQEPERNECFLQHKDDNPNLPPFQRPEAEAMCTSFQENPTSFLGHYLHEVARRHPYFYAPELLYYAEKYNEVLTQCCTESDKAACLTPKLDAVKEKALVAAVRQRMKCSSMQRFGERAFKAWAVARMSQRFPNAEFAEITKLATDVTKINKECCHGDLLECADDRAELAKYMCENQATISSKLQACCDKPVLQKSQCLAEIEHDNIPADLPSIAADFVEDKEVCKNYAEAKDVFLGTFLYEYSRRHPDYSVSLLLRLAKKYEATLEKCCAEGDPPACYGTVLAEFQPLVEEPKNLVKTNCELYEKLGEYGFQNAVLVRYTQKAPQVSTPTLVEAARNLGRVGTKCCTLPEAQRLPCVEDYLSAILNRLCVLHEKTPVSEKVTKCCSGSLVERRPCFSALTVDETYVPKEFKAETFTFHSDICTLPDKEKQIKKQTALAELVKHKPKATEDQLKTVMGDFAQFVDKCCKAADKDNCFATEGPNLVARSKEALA

L-tryptophan binding rate to albumin (plasma of cirrhosis model rats (carbon tetrachloride, 18 weeks)): 48% | L-tryptophan binding rate to albumin (plasma of normal (healthy SD) rats): 83%
Compound: N[C@@H](Cc1c[nH]c2ccccc12)C(=O)O [L-tryptophan]
